Assay results as given in patent US8603483B2, “Anti-integrin immunoconjugates, methods and uses” (Janssen Biotech, Inc., priority 2004, dated 2013).

Key:
[1] = target: alphaVbeta3 (Homo sapiens, UniProt P05106+P06756, V783I); experiment: ELISA binding of purified hybridoma antibodies to alphaVbeta3; details: ELISA on alphaVbeta3
From the text: Human placenta (disrupted using a meat grinder) or M21 human melanoma cells expressing the αVβ3 integrin were extracted with OTG (Octylthioglucoside Pierce) in buffered saline as described (WO0212501). These preparations were emulsified with an equal volume of complete Freund's adjuvant and used to immunize 15 to 17 week old surgically castrated male mouse (GenPharm, Foster City, Calif.) on days 0 and 14 and in incomplete Freunds on days 28, 48, and 56. Three days later splenocytes were harvested from a mouse showing a titer of 1:1280 against alphaVbeta3 using a solid phase EIA format. Fusion was carried out at a 1:1 ratio of murine myeloma cells (SP2/0) to viable spleen cells. Hybridoma supernatants were screened using the EIA microplate assay or EIA capture assay and selected antibody producing lines expanded and retested for the desired properties.
ELISA analysis confirmed that purified antibody from two hybridomas, C371A (also called Mab CNTO 95) and C372A, bind alphaVbeta3 in a concentration-dependent manner. Fifty percent binding is achieved at 0.07 and 0.7 μg/mL for C372A and CNTO 95 respectively.

[2] = tested on: HT29 human colon tumor; experiment: HT29 colon carcinoma xenograft in athymic rats, comparison of conjugate linkages; type: in vivo, rat
Procedure: An advanced tumor model using subcutaneously implanted HT29 human colon tumor-derived cells in immunocompromised rats was chosen to examine tolerability and potency of various linkages used to prepare immunoconjugates of CNTO 95.
CNTO 95-SPP-DM1 (CNTO 364), CNTO 95-SSNPB-DM4 (CNTO 365), CNTO 95-SSNPP-DM4 (CNTO 366), and the Mab F105 equivalents of these were prepared by ImmunoGen (Cambridge, Mass.). One hundred female athymic rats (4-6 weeks of age) were obtained from Harlan Laboratories.
Human HT29 (ATCC) were cultured in αMEM supplemented with 10% FBS at 37° C. in the presence of 5% CO2. Cells were prepared at a concentration of twenty-five million cells per ml in serum free αMEM for inoculation. Female athymic rats were inoculated with 5×10^6 HT29 cells subcutaneously (0.2 ml of 25×10^6 cells/ml) on the rear flank area (dorsal side, approximately 0.5 inches caudal to the last rib and 0.5 inches from the backbone). All rats were monitored twice per week for the appearance of tumor. The animals were stratified into 13 groups, 6 animals per group based on a mean tumor volume for each group of approximately 250 mm^3. Doses of immunoconjugates were calculated based on the contents of DM1 or DM4 in each conjugate. The L and H represent 175 and 350 μg/kg of DM1 or DM4, respectively. […] All measurements are expressed as the group mean+/−SEM (n=6).

[3] = tested on: A549 human non-small cell lung carcinoma cells; experiment: ATPLite cytotoxicity, A549 cells, 96 hrs; type: cell-based; details: A549, 96 hrs
Procedure: (§1) Human HT29 human colon carcinoma and human non-small cell lung carcinoma cells A549 (ATCC) were cultured in αMEM supplemented with 10% FBS at 37° C. in the presence of 5% CO2. Cells were seeded into white 96-well tissue culture plates (5000 cells/well) in culture medium and incubated for 16 hrs. Serial dilutions of immunoconjugates were added to each appropraite wells (0-20 μg/ml). Tissue culture plates were incubated at 37° C. for 96 hrs. ATPLIte assay was performed acording manufacturer's instruction. Data was analyzed with GraphPad Prism software using non-liner regression (Table 8) to determine the concentration at half maximal cell number as measured by luminosity.

[4] = tested on: HT29 human colon carcinoma cells; experiment: ATPLite cytotoxicity, HT29 cells, 96 hrs; type: cell-based; details: HT29, 96 hrs
Procedure: as §1

[5] = target: αvβ5 (Homo sapiens, UniProt P06756, V783I); experiment: 125-I saturation binding on αvβ5 coated plates
Procedure: The binding affinity values for purified integrins were compared to binding to receptors expressed on various cell lines using 125-I CNTO 95. A375S2 and M21 cells express both αvβ3 and αvβ5, HT-29 cells express αvβ5. For comparison, other Mabs capable of binding integrins were used. The Kd was calculated from a saturation binding curve in each case using multiple replicates of multiple lots of antibody.

[6] = tested on: A375.S2 human melanoma tumor; experiment: A375.S2 human melanoma xenograft in nude mice, CNTO 95 from day 3; type: in vivo, mouse; details: 10 mg/kg i.p. three times per week
Procedure: FIG. 4 is a graph showing the change volume over time of a human melanoma tumor in nude mice and the effect of administering CNTO 95. Mice were inoculated subcutaneously with A375.S2 cells (3×10^6), and dosing with CNTO 95 or control was initiated three days later. Mice were treated with CNTO 95 or vehicle three times per week at a dose of 10 mg/kg i.p. Each data point is the mean tumor volume from 10 tumor-bearing animals (±SEM).
At day 26, CNTO 95 inhibited tumor growth by approximately 80% compared to tumors from control-treated animals.

[7] = tested on: A375.S2 human melanoma tumor; experiment: A375.S2 human melanoma xenograft in nude rats, weekly CNTO 95; type: in vivo, rat; details: 10 mg/kg i.v. weekly, day 46, p=0.0007
Procedure: FIG. 5 is a graph showing the change volume over time of a human melanoma tumor in nude rats and the effect of administering CNTO 95. Rats were inoculated subcutaneously with A375.S2 cells (3×106), and therapy with CNTO 95 or control was initiated three days later. Rats were treated with CNTO 95 or vehicle once per week at a dose of 10 mg/kg i.v. Each data point is the mean tumor volume from 9 tumor-bearing animals (±SEM).
For rat studies, female nude rats, aged 6-7 weeks, were purchased from Harlan. Twenty rats were inoculated s.c. with A375.S2 cells (3×10^6) in the flank region (day 1). On day 4, rats were randomly assigned to 2 groups. One group was injected i.v. with CNTO 95 (10 mg/kg in PBS), while the other group received an isotype-matched control IgG (10 mg/kg). Dosing was continued weekly thereafter until day 46 (total of 6 doses). Tumors were measured by calipers twice a week and tumor volumes calculated by the formula (length×width2)/2. Body weights were also recorded weekly.
In the rat, CNTO 95 is capable of blocking both rat angiogenic integrins and human tumor cell-expressed integrins. Weekly treatment of tumor-bearing nude rats with CNTO 95 at 10 mg/kg reduced tumor growth compared to the isotype-matched human IgG control MAb (FIG. 5).

[8] = tested on: angiogenesis; experiment: Rat Matrigel angiogenesis model; type: in vivo; details: stimulated by bFGF and M21 melanoma cells
[9] = tested on: angiogenesis; experiment: Primate angiogenesis model; type: in vivo, cynomulgus monkeys; details: stimulated by bFGF
[10] = tested on: A375.S2 human melanoma cells; experiment: Advanced s.c. A375.S2 melanoma xenograft, first experiment (FIG. 6); type: in vivo, athymic nude rats; details: 10 mg/kg i.v., tumors 250-300 mm^3 at start
Procedure: (§2) The efficacy of CNTO 364 compared to CNTO95 against advanced s.c. A375.S2 human melanoma cells was investigated. CNTO 95-DM1 was prepared by ImmunoGen, Inc. Lot #1716-74B, stock concentration: 2.59 mg/ml. 5 mg/kg of CNTO 95-DM1 is equivalent to 74 μg/kg of DM1. CNTO 95 was from Centocor, Lot #5380-027, stock concentration=20 mg/ml. Human IgG-DM1: ChromPure human IgG was from Jackson ImmunoResearch Laboratories. Human IgG-DM1 was prepared by ImmunoGen, Lot #1762-50, stock concentration 2.8 mg/ml. 5 mg/kg of this conjugate is equivalent to 76 μg/kg of DM1. Maytansine: ImmunoGen, Lot #1710-121, stock concentration=16.38 μg/ml in PBS, pH 6.5. The stock solution of Maytansine was diluted with PBS to 15 and 7.5 μg/ml. PBS: ImmunoGen, pH 6.5. A375.S2 human melanoma cells were purchased from ATCC and subpassaged and stored in frozen aliquots at Centocor Cell Biology Services.
Nine-week-old athymic nude rats were subcutaneously inoculated with A375.S2 human melanoma cells. On day 14, when average tumor volumes reached to 250-300 mm^3, animals were randomized to groups of 9/10 and treatment initiated. […] The arrows indicate intravenous drug administration.

[11] = tested on: tumor and endothelial cells; experiment: In vitro functional assays on tumor and endothelial cells (summary); type: cell-based
From the text: In addition, CNTO 95 inhibited angiogenesis and tumor growth in vivo.

[12] = tested on: A375.S2 human melanoma xenografts; experiment: Advanced s.c. A375.S2 melanoma xenograft in athymic rats, second experiment (FIG. 7); type: in vivo, rat; details: i.v., days 14, 16, 18, 23, 31
Procedure: FIG. 7 is a graph showing the growth of human A375.S2 melanoma cells in athymic nude rats. On day 14, when the average tumor volumes reached 250 mm^3, the animals were randomly grouped and the first dose was administered. All animals were sacrificed on day 35. Tumor volumes were expressed as mean+/−SEM (n=9 or 10). The arrows indicate the days of intravenous drug administration.
as §2
In a second experiment in rats, the average tumor volumes reached to 250 mm^3 on day 14. […]

alphaVbeta3, sequence (P06756 31-889 V783I limits assumed): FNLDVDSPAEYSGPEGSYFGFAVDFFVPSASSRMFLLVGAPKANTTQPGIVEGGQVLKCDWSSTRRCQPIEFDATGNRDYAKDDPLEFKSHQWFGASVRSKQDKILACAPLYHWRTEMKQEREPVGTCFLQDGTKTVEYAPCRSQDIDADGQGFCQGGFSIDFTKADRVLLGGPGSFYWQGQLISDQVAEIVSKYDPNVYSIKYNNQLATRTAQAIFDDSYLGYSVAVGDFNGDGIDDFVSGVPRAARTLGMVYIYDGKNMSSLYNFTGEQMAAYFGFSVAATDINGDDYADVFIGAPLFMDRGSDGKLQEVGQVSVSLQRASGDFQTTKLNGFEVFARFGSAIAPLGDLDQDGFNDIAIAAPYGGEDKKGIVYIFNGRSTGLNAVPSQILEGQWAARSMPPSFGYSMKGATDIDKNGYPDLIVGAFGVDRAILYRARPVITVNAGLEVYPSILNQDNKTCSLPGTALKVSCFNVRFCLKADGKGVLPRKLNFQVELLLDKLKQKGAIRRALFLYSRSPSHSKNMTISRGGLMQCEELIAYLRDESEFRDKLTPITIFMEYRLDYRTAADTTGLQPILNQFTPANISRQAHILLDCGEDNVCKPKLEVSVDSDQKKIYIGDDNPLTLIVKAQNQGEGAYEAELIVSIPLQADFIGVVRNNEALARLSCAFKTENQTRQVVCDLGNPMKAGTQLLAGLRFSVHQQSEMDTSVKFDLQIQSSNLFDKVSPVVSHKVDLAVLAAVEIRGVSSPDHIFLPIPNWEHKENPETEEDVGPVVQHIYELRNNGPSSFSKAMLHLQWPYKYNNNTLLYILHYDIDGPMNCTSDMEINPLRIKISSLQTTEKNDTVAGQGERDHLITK
alphaVbeta3, sequence (P06756 891-1048 limits assumed): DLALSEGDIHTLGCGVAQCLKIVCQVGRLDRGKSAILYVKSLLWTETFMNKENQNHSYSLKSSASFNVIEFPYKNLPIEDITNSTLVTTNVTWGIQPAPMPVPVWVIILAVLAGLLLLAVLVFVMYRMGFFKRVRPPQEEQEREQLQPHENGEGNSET
alphaVbeta3, sequence (P05106 27-788): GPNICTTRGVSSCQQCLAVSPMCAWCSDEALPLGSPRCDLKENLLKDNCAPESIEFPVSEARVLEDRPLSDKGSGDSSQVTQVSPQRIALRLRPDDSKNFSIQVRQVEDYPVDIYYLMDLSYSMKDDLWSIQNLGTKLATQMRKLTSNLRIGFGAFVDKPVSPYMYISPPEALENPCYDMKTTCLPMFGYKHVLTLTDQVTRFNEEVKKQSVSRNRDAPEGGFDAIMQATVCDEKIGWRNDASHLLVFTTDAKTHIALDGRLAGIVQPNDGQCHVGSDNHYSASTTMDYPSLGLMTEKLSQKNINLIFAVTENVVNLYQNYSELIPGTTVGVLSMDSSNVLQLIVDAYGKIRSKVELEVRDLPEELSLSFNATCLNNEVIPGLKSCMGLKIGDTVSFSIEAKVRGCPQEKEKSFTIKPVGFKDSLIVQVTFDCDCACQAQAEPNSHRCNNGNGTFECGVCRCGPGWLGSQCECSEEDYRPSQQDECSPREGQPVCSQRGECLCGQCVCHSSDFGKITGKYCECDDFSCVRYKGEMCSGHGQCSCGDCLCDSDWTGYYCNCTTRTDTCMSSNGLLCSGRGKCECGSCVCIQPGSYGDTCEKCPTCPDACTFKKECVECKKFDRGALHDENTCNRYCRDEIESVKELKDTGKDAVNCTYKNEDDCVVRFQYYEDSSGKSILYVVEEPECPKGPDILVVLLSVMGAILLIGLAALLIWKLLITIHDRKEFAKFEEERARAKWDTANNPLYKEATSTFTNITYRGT
αvβ5, sequence (P06756 31-889 V783I limits assumed): as the sequence (P06756 31-889 V783I limits assumed) above
αvβ5, sequence (P06756 891-1048 limits assumed): as the sequence (P06756 891-1048 limits assumed) above
αvβ5, sequence (P18084 24-799 partner): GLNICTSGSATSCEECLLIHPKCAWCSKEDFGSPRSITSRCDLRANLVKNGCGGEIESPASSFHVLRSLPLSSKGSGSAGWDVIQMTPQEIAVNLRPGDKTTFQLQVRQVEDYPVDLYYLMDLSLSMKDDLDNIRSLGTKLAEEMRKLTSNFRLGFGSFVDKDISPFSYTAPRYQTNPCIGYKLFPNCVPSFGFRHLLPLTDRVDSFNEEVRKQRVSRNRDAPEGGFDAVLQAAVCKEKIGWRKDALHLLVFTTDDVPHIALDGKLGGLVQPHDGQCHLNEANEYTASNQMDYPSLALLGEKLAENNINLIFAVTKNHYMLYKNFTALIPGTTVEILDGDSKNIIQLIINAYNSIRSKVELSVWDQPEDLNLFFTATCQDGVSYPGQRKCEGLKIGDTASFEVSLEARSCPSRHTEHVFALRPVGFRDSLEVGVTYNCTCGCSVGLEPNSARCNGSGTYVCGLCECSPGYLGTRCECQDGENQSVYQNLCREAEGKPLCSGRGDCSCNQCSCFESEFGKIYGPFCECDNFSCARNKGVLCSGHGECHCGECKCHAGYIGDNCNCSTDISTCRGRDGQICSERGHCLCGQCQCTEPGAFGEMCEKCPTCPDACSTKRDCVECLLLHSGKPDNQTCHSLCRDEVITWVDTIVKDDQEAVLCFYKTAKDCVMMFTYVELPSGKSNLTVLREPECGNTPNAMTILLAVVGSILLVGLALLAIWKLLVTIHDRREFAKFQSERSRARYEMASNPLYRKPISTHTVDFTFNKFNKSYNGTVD

Which “Fifty percent (maximal) binding concentration” value [1] does the source give for c7E3 IgG: anti-alphaIIbeta3 antibody here?
The value was 0.07 µg/mL.

Which “complete regression, animals out of 6” value ([2]; high dose (350 microgm/kg of DM4), single injection) does the source give for “CNTO 365: CNTO 95 conjugated to maytansinoid DM4 with SSNPB or SPDB linker; methyl groups 0:2” here?
The value was 4.

What about the “regressed preformed colon tumors, animals out of 6” value ([2]; low dose (175 microgm/kg of DM4), Day 7 and Day 21) of the same molecule?
Its value is 2.

What about the “EC50, concentration at half maximal cell number” value [3] of the same molecule?
The value was 0.3 µg/mL.

What about the “EC50, concentration at half maximal cell number” value [4] of the same molecule?
The value was 0.24 µg/mL.

How did the “binding on αvβ5 coated plates” value [5] turn out when “abciximab: other Mab capable of binding integrins, used for comparison” was run?
The value was “no binding and no dose-response”.

“CNTO 95: fully human anti-alphaV integrin monoclonal antibody, human variable and IgG1 kappa constant regions” was tested. Which “inhibition of tumor growth compared to control-treated animals” value ([6]; day 26) did it give?
Its value is “approximately 80%”.

What about the “tumor growth vs control” value ([6]; day 26, P=0.0005) of the same molecule?
Its value is “significantly inhibited growth of tumors”.

What about the “final tumor size vs isotype-matched control IgG” value [7] of the same molecule?
Its value is “significant reduction in final tumor size”.

What about the effect on angiogenesis [8] of the same molecule?
The effect on angiogenesis was “blocked angiogenesis”.

And the effect on angiogenesis [9]?
The effect on angiogenesis was “blocked angiogenesis”.

What about the “effect on tumor growth / average tumor volume” value [10] of the same molecule?
Its value is “had no effect”.

And the “effect on adhesion, migration, proliferation and invasion” value [11]?
Its value is “inhibited adhesion, migration, proliferation and invasion”.

What about the “effect on xenograft tumors (control compounds)” value [12] of the same molecule?
Its value is “did not show any significant effects”.

How did the “effect on xenograft tumors (control compounds)” value [12] turn out when `COc1cc2cc(c1Cl)N(C)C(=O)C[C@H](OC(=O)[C@H](C)N(C)C(C)=O)[C@]1(C)O[C@H]1[C@H](C)[C@@H]1C[C@@](O)(NC(=O)O1)[C@H](OC)/C=C/C=C(\C)C2` [Maytansine, reference compound] was run?
The value was “did not show any significant effects”.
